From ChEMBL document CHEMBL1201862, “PubChem BioAssay data set” (2004)
Several values for one entry are separate records, joined by “and”; a condition that tells them apart may be missing. Identical values can stand only once. Activity calls are given as the source filed them.

Experiments:
[1] = molecular target: T1, Heat shock factor protein 1 (Mus musculus, UniProt P38532); assay: inhibition of MG132-induced HSE-luciferase signal, confirmation, cell-based, NIH3T3, luminescence, dose retest (AID 2382); format: functional;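 also: NIH3T3 fibroblasts with HSF1-driven luciferase reporter stressed by proteasome inhibitor MG132; luminescence from HSF1-driven luciferase expression after 8 hours of MG132 stress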
T1 sequence (P38532 whole entry): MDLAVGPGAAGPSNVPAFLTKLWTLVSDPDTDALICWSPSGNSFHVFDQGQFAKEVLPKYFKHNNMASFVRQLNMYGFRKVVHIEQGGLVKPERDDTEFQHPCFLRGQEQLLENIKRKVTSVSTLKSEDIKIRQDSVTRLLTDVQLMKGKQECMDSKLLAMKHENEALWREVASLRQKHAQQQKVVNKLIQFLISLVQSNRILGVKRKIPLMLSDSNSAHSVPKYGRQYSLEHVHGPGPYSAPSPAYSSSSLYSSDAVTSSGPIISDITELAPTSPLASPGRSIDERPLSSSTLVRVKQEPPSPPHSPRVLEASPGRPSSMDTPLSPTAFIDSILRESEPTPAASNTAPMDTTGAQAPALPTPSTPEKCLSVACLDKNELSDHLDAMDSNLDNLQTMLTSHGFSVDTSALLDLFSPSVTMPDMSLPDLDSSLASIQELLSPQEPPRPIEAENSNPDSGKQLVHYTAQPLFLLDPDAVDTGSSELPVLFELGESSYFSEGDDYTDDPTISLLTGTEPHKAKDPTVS

[2] = Luminescence Cell-Based Dose Response HTS to Identify Inhibitors of 5'UTR Stem-Loop Driven Prion Protein mRNA Translation in H4 Neuroglioblastoma Cells. [Related pubchem assays: 1827 (Project Summary), 1813 (Primary HTS)]; format: functional
[3] = inhibitors of firefly luciferase expression or activity, dose response, H4 neuroglioma cells, luminescence (AID 1990); format: functional, cell-based
[4] = inhibitors of SNCA 5'UTR-driven reporter translation, confirmation, H4 neuroglioma cells, luminescence (AID 1988); format: functional, cell-based
Streptococcus = assay: Group A Streptococcus viability loss, dose response, counter-screen for streptokinase expression inhibitor project, luminescence, BacTiterGlo (AID 1915); format: functional, organism-based;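 also: potency for reduction of bacterial viability or growth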
[5] = tested on: Streptococcus sp. 'group A'; assay: growth inhibition of control SK(-) GAS strain, dose response, counter-screen for streptokinase expression inhibitor project, luminescence, kanamycin, BacTiterGlo, confirmation (AID 1900); format: functional, organism-based
Cytochrome P450 1A2 = molecular target: T2, Cytochrome P450 1A2 (Homo sapiens, UniProt P05177);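 also: PubChem cytochrome P450 panel assay, CYP1A2 panel member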
T2 sequence (P05177 whole entry): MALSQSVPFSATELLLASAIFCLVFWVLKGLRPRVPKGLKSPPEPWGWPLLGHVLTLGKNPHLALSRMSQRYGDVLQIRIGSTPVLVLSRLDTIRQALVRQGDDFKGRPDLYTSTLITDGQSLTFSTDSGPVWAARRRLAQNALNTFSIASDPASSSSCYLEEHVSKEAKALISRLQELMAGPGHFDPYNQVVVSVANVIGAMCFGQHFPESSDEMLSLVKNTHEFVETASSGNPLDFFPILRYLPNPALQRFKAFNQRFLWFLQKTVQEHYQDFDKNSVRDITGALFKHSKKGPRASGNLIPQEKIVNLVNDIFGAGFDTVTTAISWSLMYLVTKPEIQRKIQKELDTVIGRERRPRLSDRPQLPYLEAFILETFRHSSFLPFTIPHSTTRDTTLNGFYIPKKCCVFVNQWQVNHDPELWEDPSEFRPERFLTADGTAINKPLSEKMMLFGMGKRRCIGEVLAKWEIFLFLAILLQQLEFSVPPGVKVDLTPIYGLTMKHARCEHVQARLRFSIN

Cytochrome P450 2C19 = Cytochrome P450 2C19 (Homo sapiens, UniProt P33261); assay: Cytochrome panel assay with activity outcomes. Panel member name: p450-cyp2c19 Compounds with AC50 equal or less than 10 uM are considered active; format: functional
[6] = inhibitors of intracellular T. cruzi replication, confirmation, NIH3T3 host cells, beta-gal luminescence (AID 2044); format: functional, cell-based;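 also: intracellular parasites grown in NIH/3T3 mouse fibroblasts as host cells; luminescent beta-galactosidase reporter signal from transgenic T. cruzi replicating inside host cells; inhibitors lower the luminescence signal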
[7] = cytotoxicity toward NIH3T3 fibroblasts, dose response, counter-screen, cell-based, ATP luminescence, mouse fibroblasts (AID 2010); format: functional;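 also: cells exposed to compound for about 90 hours before reading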
INS1 = assay: beta cell apoptosis inhibitors, cytokine rescue, dose response, luminescence, retest (AID 449756); format: functional, cell-based; details: Rattus norvegicus;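 also: cell death triggered by IL-1 beta plus TNF-alpha plus IFN-gamma mixture; protective hits raise ATP signal compared with cytokine alone wells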

Chain of Cytochrome P450 2C19 (P33261 whole entry): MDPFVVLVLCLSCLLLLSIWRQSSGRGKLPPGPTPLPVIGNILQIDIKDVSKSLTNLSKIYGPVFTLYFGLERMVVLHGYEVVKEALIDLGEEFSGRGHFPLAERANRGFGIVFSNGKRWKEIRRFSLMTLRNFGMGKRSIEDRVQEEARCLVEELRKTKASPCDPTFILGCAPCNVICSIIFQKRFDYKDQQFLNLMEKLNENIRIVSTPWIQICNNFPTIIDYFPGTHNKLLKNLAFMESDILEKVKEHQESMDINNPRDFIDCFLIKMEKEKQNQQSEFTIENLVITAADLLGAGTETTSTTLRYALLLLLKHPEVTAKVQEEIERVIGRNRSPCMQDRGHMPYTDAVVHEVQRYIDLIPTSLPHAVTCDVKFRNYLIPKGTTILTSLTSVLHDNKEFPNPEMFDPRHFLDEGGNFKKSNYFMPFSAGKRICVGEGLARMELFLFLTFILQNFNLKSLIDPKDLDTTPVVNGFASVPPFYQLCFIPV

CCNC(=O)CNC(=O)c1nn(Cc2ccccc2)c(=O)c2ccccc12
EC50 [1]: > 195 µM (not active)

COC(=O)Nc1nc2cc(C(=O)c3ccc(F)cc3)ccc2[nH]1 [FLUBENDAZOLE]
EC50 [2]: 0.225 µM (active) | EC50 [3]: 0.323 µM (active) | EC50 [4]: < 0.1 µM (active)

COc1cccc(/C=C/C(=O)OCC(=O)Nc2nnc(-c3ccccc3)o2)c1
EC50 (Streptococcus): 11.1 µM (active) | EC50 [5]: 6.11 µM (active)

CC1(C)Oc2ccc(C#N)cc2[C@H](N2CCCC2=O)[C@H]1O [(-)-CROMAKALIM]
AC50 (Cytochrome P450 1A2): 10 µM (inconclusive) and 20 µM (inconclusive)

O=C1N=C2SCCN2/C1=C\c1c(Cl)cccc1Cl
AC50 (Cytochrome P450 2C19; read-out: AC50): 28.2 µM (inconclusive)

O=C1SCC(c2ccccc2)=NN1Cc1ccccc1
EC50 [1]: > 195 µM (not active)

CCOc1ccc(C(=O)C[n+]2cccc3cc(C)ccc32)cc1
EC50 [6]: 4.12 µM (active) | EC50 [7]: > 30 µM (not active)

Cc1ccc(C(=N)NOC(=O)CN(C)S(=O)(=O)c2ccc(C)cc2)cc1
EC50 [1]: > 195 µM (not active)

Cc1ccccc1Cn1ccc(NC(=O)c2cnn3c(C(F)(F)F)cc(-c4ccco4)nc23)n1
EC50 [1]: 19.1 µM (active)

COc1ccc(CNC(=O)c2cnc3scc(C)n3c2=O)cc1
EC50 [1]: > 195 µM (not active)

O=S(=O)(c1ccc(Cl)cc1)N1CCCCC1c1cccnc1 (centres undefined)
EC50 [6]: 0.838 µM (active) | EC50 [7]: > 60 µM (not active)

COc1ccc(CN(C)C(=O)c2cc(S(=O)(=O)N3CCOCC3)ccc2N2CCCC2)cc1
EC50 [1]: > 195 µM (not active)

CN1CCN(C(=O)/C(=C\c2cccs2)NC(=O)c2ccco2)CC1
EC50 [1]: > 195 µM (not active)

CCOc1ccc(-n2c(=O)[nH]cc(C(=O)N3CCCc4ccccc43)c2=O)cc1
AC50 (Cytochrome P450 2C19; read-out: AC50): 5.01 µM (inconclusive)

O=C(Nc1cc2ccccc2oc1=O)C1CCCCC1
AC50 (Cytochrome P450 2C19; read-out: AC50): 28.2 µM (inconclusive) | AC50 (Cytochrome P450 1A2): 2.51 µM (inconclusive)

N=C(N)SCCSC(=N)N
AC50 (Cytochrome P450 1A2): 2 µM (inconclusive)

COc1cccc(NC(=O)c2oc3ccccc3c2NC(=O)c2ccc3c(c2)OCO3)c1
AC50 (Cytochrome P450 1A2): 6.31 µM (inconclusive)

Cc1cc(=O)[nH]c2ccccc12
AC50 (Cytochrome P450 2C19; read-out: AC50): 20 µM (inconclusive)

COc1cccc(C2C(C(=O)c3cc4ccccc4o3)=C(O)C(=O)N2c2cc(C)on2)c1 (centres undefined)
EC50 [1]: > 195 µM (not active)

Cc1ccc(-n2cc(CN3CCC(O)(c4ccccn4)CC3)c(-c3ccc(F)cc3)n2)cc1
EC50 [6]: 3.61 µM (active) | EC50 [7]: 9.48 µM (active)

Cn1nnnc1SCc1ccccc1[N+](=O)[O-]
AC50 (Cytochrome P450 1A2): 15.8 µM (inconclusive)

CNc1cc(NS(=O)(=O)c2ccc(N)cc2)nc(NC)n1
AC50 (Cytochrome P450 2C19): inconclusive

Cc1ccc(OCCCCNC2CCCCC2)c(C)c1
EC50 [6]: 1.62 µM (active) | EC50 [7]: > 60 µM (not active)

O=C(O)c1ccc(N2C(=O)CC(N3CCN(c4cccc(C(F)(F)F)c4)CC3)C2=O)cc1 (centres undefined)
EC50 [1]: > 195 µM (not active)

O=C(Nc1cccnc1)c1cccnc1
AC50 (INS1): 7.3 µM (active)

COc1cc(C(=O)Nc2ccc(-c3nc4cc(C)ccc4o3)c(O)c2)cc(OC)c1OC
EC50 (Streptococcus): 1.85 µM (active) | EC50 [5]: 2.35 µM (active)

O=C(Nn1c(-c2ccncc2)nc2ccccc2c1=O)c1ccc(Br)cc1
EC50 [6]: 0.75 µM (active) | EC50 [7]: > 60 µM (not active)

COc1ccc(NC(=O)N2CC3(CCN(C(=O)c4c(C)noc4C)CC3)C2)cc1
AC50 (Cytochrome P450 2C19; read-out: AC50): 39.8 µM (inconclusive)

Fc1cc(F)c2nc(Nc3nc4c(F)cccc4s3)sc2c1
AC50 (INS1): 4.34 µM (active)

COC(=O)[C@@H]1C[C@H]1[C@@H](NC(=O)c1cc(C)nn1C)c1ccccc1
AC50 (Cytochrome P450 2C19; read-out: AC50): 39.8 µM (inconclusive)

Clc1ccccc1CN(Cc1ccccc1)c1[nH]cnc2ncnc1-2
EC50 (Streptococcus): > 150 µM (not active) | EC50 [5]: 5.85 µM (active)

CC(C)(O)C#Cc1ccc(CN2CCCC(CO)(Cc3cccc(Cl)c3)C2)cc1 (centres undefined)
EC50 [6]: 0.455 µM (active) | EC50 [7]: > 60 µM (not active)

COC(=O)[C@@]1(Cc2ccc(OC)cc2)[C@H]2c3cc(C(=O)N4CCCC4)n(CCc4ccccn4)c3C[C@H]2CN1C(=O)c1ccccc1
AC50 (Cytochrome P450 2C19; read-out: AC50): 25.1 µM (inconclusive)

CCc1ccc(C2=NN(CCC(=O)NC(C)CCc3ccccc3)C(=O)CC2)cc1 (centres undefined)
EC50 [2]: 23.8 µM (active) | EC50 [3]: > 120 µM (not active) | EC50 [4]: 119 µM (active)

CCOC(=O)c1ccc(Cl)c(NC(=O)c2ccc(-c3ccccc3)cc2)c1
AC50 (Cytochrome P450 1A2): 28.2 µM (inconclusive)

C[C@@H](C(=O)NCCc1c[nH]c2ccccc12)[C@@H]1C[C@@]1(C)[C@@H](NC(=O)OCc1ccccc1)c1ccccc1
AC50 (Cytochrome P450 1A2): 12.6 µM (inconclusive)

COc1cccc(CNc2nc(SC)ncc2CO)c1
EC50 [2]: 27.1 µM (active) | EC50 [3]: 13.5 µM (active) | EC50 [4]: > 120 µM (not active)

CCc1ccc(CN2CCCC(C(=O)c3sccc3C)C2)o1 (centres undefined)
EC50 [6]: 0.159 µM (active) | EC50 [7]: 16.9 µM (active)

O=C(Cn1cnc([N+](=O)[O-])c1)Nc1cc(Oc2ccc(Cl)cc2Cl)cc([N+](=O)[O-])c1
EC50 [6]: 1.11 µM (active) | EC50 [7]: > 60 µM (not active)

COc1cccc(-c2nc(-c3ccc(NC(=O)c4cccnc4)cc3)no2)c1
AC50 (INS1): 1.33 µM (active)

Cc1cc2c(cc1C)NC(c1nc3ccccc3[nH]1)C1=C(O)CC(C)(C)CC1=N2 (centres undefined)
AC50 (Cytochrome P450 2C19; read-out: AC50): 1.78 µM (inconclusive) | AC50 (Cytochrome P450 1A2): 25.1 µM (inconclusive)

COC(=O)c1ccc(NC(=S)N(Cc2cccnc2)Cc2ccco2)cc1
EC50 [6]: 0.534 µM (active) | EC50 [7]: > 30 µM (not active)

CN1CCC(=C2c3ccccc3CC(=O)c3sccc32)CC1 [KETOTIFEN]
AC50 (Cytochrome P450 2C19): inconclusive

O=C(Nc1ccccc1)c1ccc(Nc2c([N+](=O)[O-])cc([N+](=O)[O-])c3ccccc23)cc1
EC50 [6]: 0.622 µM (active) | EC50 [7]: > 60 µM (not active)

Cc1ccc(Nc2nc(-c3cccnc3)cs2)cc1Cl
EC50 [6]: 2.13 µM (active) | EC50 [7]: > 60 µM (not active)

CCN(c1ccccc1)c1cc(NC)[n+](C)c(C)n1
AC50 (Cytochrome P450 1A2): 31.6 µM (inconclusive)

Cc1cc(Cl)ccc1OCCCC(=O)N1CCOCC1
EC50 [1]: > 195 µM (not active)

C[C@@H](C(=O)NCc1ccccn1)[C@H]1C[C@]1(C)[C@H](NC(=O)OCc1ccccc1)c1ccccc1
AC50 (Cytochrome P450 1A2): 25.1 µM (inconclusive)

Cc1cccc(NC(=O)Cn2c(=O)n(Cc3ccco3)c(=N)c3c4c(sc32)COC(C)(C)C4)c1
EC50 [1]: > 195 µM (not active)

COc1ccc(-c2nc(CN3CCCCC3c3cccnc3)c(C)o2)c(F)c1 (centres undefined)
EC50 [6]: 1.45 µM (active) | EC50 [7]: > 60 µM (inconclusive)

CC(C)CCNC(=O)C1CCCN1C(=O)NC1CCCCC1 (centres undefined)
EC50 [1]: > 195 µM (not active)
